The values below come from patent US11312721B2 (priority 2015, dated 2022).

Data set [1] has as its system aged-impaired (AI) rats. Description: Morris water maze behavioral task. The data set is classed as in vivo, rat. The note with it: 100 μg ICV. The protocol:
The effects of 6,6 dimethyl-3-(3-hydroxypropyl)thio-1-(thiazol-2-yl)-6,7-dihydro-2-benzothiophen-4(5H)-one on the in vivo spatial memory retention of aged-impaired (AI) rats were assessed in a Morris water maze behavioral task. A water maze is a pool surrounded with a novel set of patterns relative to the maze.
Cognitively impaired aged rats were implanted unilaterally with a cannula into the lateral ventricle. Stereotaxic coordinates were 1.0 mm posterior to bregma, 1.5 mm lateral to midline, and 3.5 mm ventral to the skull surface. After about a week of recovery, the rats were pre-trained in a water maze for 2 days (6 trials per day) to locate a submerged escape platform hidden underneath the surface of the pool, in which the escape platform location varied from day to day. No intracerebroventricular (ICV) infusion was given during pre-training.
After pre-training, rats received ICV infusion of either 100 μg 6,6 dimethyl-3-(3-hydroxypropyl)thio-1-(thiazol-2-yl)-6,7-dihydro-2-benzothiophen-4(5H)-one (n=6) in 5 μl DMSO or vehicle DMSO (n=5) 40 min prior to water maze training and testing. Training consisted of 8 trials per day for 2 days where the hidden escape platform remained in the same location. Rats were given 60 seconds to locate the platform with a 60 seconds inter-trial interval. The rats were given a probe test (120 seconds) 24 hr. after the end of training where the escape platform was removed. During the training, there were 4 blocks, where each block had 4 training trials.
During a test trial 24 hr. after training, the escape platform was removed. The search/swim pattern of the rats was used to measure whether the rats remember where the escape platform was located during pre-trial training in order to test for the long-term memory of the rats. In this trial, “target annulus” is a designated area 1.5 times the size of the escape platform around the area where the platform was located during pre-trial training. “Opposite annulus” is a control area of the same size as the size of the target annulus, which is located opposite to the target annulus in the pool. If the rats had good long term memory, they would tend to search in the area surrounding the location where the platform was during the pre-trial training (i.e., the “target” annulus; and not the “opposite” annulus). “Time in annulus” is the amount of time in seconds that the rat spent in the target or opposite annulus area. “Number (#) of crossings” in annulus is the number of times the rat swam across the target or opposite annulus area.

The subject of data set [2] is aged-impaired (AI) rats. The data set is described as follows: Radial Arm Maze (RAM) behavioral task, spatial memory retention. The format is in vivo, rat. The following applies: 3 mg/kg ip, two-hour delay RAM. On the procedure:
The effects of methyl 3,5-diphenylpyridazine-4-carboxylate on the in vivo spatial memory retention of aged-impaired (AI) rats were assessed in a Radial Arm Maze (RAM) behavioral task using vehicle control and four different dosage levels of methyl 3,5-diphenylpyridazine-4-carboxylate ([…]). RAM behavioral tasks were performed on eight AI rats. All five treatment conditions (vehicle and four dosage levels) were tested on all eight rats.
The RAM apparatus used consisted of eight equidistantly-spaced arms. An elevated maze arm (7 cm width×75 cm length) projected from each facet of an octagonal center platform (30 cm diameter, 51.5 cm height). Clear side walls on the arms were 10 cm high and were angled at […] to form a trough. A food well (4 cm diameter, 2 cm deep) was located at the distal end of each arm. Froot Loops™ (Kellogg Company) were used as rewards. Blocks constructed of Plexiglas™ (30 cm height×12 cm width) could be positioned to prevent entry to any arm. Numerous extra maze cues surrounding the apparatus were also provided.
The AI rats were initially subjected to a pre-training test (Chappell et al. Neuropharmacology 37: 481-487, 1998). The pre-training test consisted of a habituation phase (4 days), a training phase on the standard win-shift task (18 days) and another training phase (14 days) in which a brief delay was imposed between presentation of a subset of arms designated by the experimenter (e.g., 5 arms available and 3 arms blocked) and completion of the eight-arm win-shift task (i.e., with all eight arms available).
In the habituation phase, rats were familiarized to the maze for an 8-minute session on four consecutive days. In each of these sessions, food rewards were scattered on the RAM, initially on the center platform and arms and then progressively confined to the arms. After this habituation phase, a standard training protocol was used, in which a food pellet was located at the end of each arm. Rats received one trial each day for 18 days. Each daily trial terminated when all eight food pellets had been obtained or when either 16 choices were made or 15 minutes had elapsed. After completion of this training phase, a second training phase was carried out in which the memory demand was increased by imposing a brief delay during the trial. At the beginning of each trial, three arms of the eight-arm maze were blocked. Rats were allowed to obtain food on the five arms to which access was permitted during this initial “information phase” of the trial. Rats were then removed from the maze for 60 seconds, during which time the barriers on the maze were removed, thus allowing access to all eight arms. Rats were then placed back onto the center platform and allowed to obtain the remaining food rewards during this “retention test” phase of the trial. […]

Data set [3] is classed as in vivo, Long Evans rats. The note with it: i.v. The protocol: (§1) Food and water were available ad libitum.
For plasma exposures, blood samples were centrifuged at 14000 rpm for 16 minutes. After centrifuging, 50 ul of supernatant (plasma) from each sample was added to 200 μl of acetonitrile plus 0.1% formic acid. […] Samples were sonicated for 5 minutes in an ultrasonic water bath, followed by centrifugation for 30 minutes, at 16000 RPM. 100 ul of supernatant was removed from each sample vial and placed in a new glass auto sample vial, followed by the addition of 300 μl of sterile water (pH 6.5).
Additional studies were conducted in aged Long-Evans rats in order to determine the exposures at the behaviorally relevant doses in the cognition studies. Exposure in young Long-Evans rats was also determined to bridge with the receptor occupancy studies that were conducted in young Long-Evans rats. Exposures in young and aged Long-Evans rats were relatively similar (Table 4, FIG. 4).

The target of data set [4] is T1, GABAA α5 receptor (Rattus norvegicus, UniProt P19969).
T1 construct: from tissue
The data set is described as follows: GABAA α5 receptor occupancy in vivo with Ro 15-4513 tracer. On the set-up: species or system Long Evans rats.
Excerpt: as §1

The target in data set [5] is α5-containing GABAA R (Homo sapiens, UniProt P18507+P31644). The note with it: (EC20); cited from earlier work.
The subject of data set [6] is MAM-treated rats. The note with it: cited from earlier work.
The mark [7] stands for this setting: probe test 24 hr. after training.

Entries after “also recorded” stand apart in the source; their conditions may differ. Where two headings read alike, the source gives them in different places.

T1 sequence (P19969 32-464 limits assumed): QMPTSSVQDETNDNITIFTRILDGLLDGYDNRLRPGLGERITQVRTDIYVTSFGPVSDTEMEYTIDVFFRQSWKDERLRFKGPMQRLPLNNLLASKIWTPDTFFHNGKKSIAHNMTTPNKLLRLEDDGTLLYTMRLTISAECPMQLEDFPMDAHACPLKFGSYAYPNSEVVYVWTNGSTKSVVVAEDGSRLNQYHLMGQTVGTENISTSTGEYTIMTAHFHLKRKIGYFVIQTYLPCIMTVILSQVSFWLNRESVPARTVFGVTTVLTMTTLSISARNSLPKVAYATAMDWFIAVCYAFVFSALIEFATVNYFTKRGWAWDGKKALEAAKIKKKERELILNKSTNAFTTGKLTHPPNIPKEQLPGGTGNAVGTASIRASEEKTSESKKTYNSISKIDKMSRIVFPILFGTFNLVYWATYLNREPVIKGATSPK
α5-containing GABAA R, sequence (P31644 32-462): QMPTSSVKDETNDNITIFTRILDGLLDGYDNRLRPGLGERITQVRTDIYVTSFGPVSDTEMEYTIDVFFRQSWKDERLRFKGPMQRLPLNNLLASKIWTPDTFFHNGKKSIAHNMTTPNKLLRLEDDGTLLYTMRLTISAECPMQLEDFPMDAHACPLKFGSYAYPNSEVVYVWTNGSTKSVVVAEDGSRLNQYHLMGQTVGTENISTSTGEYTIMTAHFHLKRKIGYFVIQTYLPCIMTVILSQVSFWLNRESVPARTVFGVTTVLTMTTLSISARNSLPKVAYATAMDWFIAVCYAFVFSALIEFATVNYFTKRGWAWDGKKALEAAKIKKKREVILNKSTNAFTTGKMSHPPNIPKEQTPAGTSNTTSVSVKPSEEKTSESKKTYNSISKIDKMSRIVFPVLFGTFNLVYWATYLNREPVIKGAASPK
α5-containing GABAA R, sequence (P28472 26-473 partner): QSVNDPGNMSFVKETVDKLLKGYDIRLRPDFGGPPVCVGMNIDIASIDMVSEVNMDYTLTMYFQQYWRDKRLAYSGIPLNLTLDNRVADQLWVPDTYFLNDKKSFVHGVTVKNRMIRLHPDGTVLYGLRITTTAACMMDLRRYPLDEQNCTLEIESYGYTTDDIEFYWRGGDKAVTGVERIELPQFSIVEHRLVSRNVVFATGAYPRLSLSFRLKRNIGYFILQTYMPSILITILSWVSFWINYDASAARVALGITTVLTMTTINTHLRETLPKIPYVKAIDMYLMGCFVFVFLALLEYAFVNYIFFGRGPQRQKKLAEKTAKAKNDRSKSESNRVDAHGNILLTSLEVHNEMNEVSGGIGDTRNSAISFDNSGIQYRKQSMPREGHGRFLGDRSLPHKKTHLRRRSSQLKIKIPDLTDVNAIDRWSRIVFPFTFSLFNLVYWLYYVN
α5-containing GABAA R, sequence (P18507 40-475): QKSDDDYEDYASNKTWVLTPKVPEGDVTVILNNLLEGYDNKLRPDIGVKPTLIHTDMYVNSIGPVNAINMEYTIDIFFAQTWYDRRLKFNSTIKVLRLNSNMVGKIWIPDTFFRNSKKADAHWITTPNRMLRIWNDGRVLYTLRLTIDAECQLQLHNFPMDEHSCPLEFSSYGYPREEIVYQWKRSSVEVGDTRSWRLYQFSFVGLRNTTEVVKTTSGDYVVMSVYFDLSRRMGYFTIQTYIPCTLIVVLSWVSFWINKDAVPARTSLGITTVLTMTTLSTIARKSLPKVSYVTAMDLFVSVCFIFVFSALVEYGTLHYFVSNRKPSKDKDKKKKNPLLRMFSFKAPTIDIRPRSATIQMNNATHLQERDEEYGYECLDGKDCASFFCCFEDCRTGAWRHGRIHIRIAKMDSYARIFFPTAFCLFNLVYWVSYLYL

`CC1(C)CC(=O)c2c(SCCCO)sc(-c3nccs3)c2C1` [6,6 dimethyl-3-(3-hydroxypropyl)thio-1-(thiazol-2-yl)-6,7-dihydro-2-benzothiophen-4(5H)-one]: in data set [1] (block 1 (beginning of training)), the “time to find the escape platform” value was “about 24 seconds”. In data set [1] (block 4 (end of training)), the “time to find the escape platform” value is listed as “about 9.6 seconds”. In data set [1] (setting [7]), the “number of crossings of target annulus compared with opposite annulus” value was “crossed the “target annulus” more often” and the “time in target annulus compared with opposite annulus” value is reported as “spent significantly more time in the target annulus”.
Usually ED50 stands for the dose at which the effect has come halfway, by size or by number of responders. Regarding `COC(=O)c1c(-c2ccccc2)cnnc1-c1ccccc1` [Methyl 3,5-diphenylpyridazine-4-carboxylate], the “average no. of errors ± SEM in retention test” value in data set [2] (AI rats) came to 1.31±0.40. The “memory performance relative to vehicle control” value in data set [2] (t(7)=4.233, p=0.004) is given as “significantly improved memory performance”. Further, the “fold increase in hippocampal exposure” value in data set [3] (dose from 0.1 to 1 mg/kg) is listed as 12 fold. Also, in data set [3] (dose from 1 to 10 mg/kg), the “fold increase in hippocampal exposure” value is about 5 fold and the “fold increase in plasma exposure” value is reported as 12 fold. Also, the “effect on Ro 15-4513 binding in hippocampus and cerebellum” value in data set [4] (0.01-10 mg/kg, i.v.) is listed as “dose-dependently reduced Ro 15-4513 binding in hippocampus, without affecting cerebellum levels of Ro 15-4513; also recorded: blocked the binding of Ro154513 in the hippocampus but did not affect binding of Ro15413 in the cerebellum”. Also, the “RO required for cognitive efficacy in this model” value in data set [4] (from exposure in aged rats at 3 mg/kg, i.p.) was 30-40%. Besides, the “GABAA α5 receptors occupied at behaviorally active exposures” value in data set [4] (hippocampus, exposures behaviorally active in aged-impaired rats) is “about 32%”. Also, the “ED50 of receptor occupancy, ratio method” value in data set [4] (i.v., hippocampus/cerebellum ratio method) is 1.8 mg/kg. Besides, in data set [4] (rat, iv, 1 mg/kg, i.v., depending on method used to determine RO, read-out: receptor occupancy at an exposure of 180 ng/g in hippocampus), the receptor occupancy at 1 mg/kg was in the range of 32 to 39%. Moreover, in data set [4] (rat, iv, 10 mg/kg), the receptor occupancy at 10 mg/kg was over 90%. Besides, the ED50 in data set [4] (rat, iv, read-out: ED50 of receptor occupancy, using L-755,608 to define occupancy) is 1.1 mg/kg. The “α5 in vitro efficacy” value in data set [5] is “+27”.
For the molecule `C#Cc1ccc2c(c1)C(c1ccccc1F)=N[C@H](C)c1c(C(=O)OCC)ncn1-2` [SH-053-2′F—R—CH3], the “number of spontaneously active DA neurons in the VTA” value in data set [6] (MAM rats, systemic or infused into the ventral HPC) is “reduces the number of spontaneously active DA neurons in the ventral tegmental area (VTA) of MAM rats to levels observed in saline-treated rats”. Moreover, in data set [6] (MAM-treated rats), the “locomotor response to amphetamine” value was “is reduced”. The “cortical-evoked responses of HPC neurons” value in data set [6] (saline-treated and MAM-treated animals) is recorded as “diminished cortical-evoked responses”.
